Reference: US6201116A, “Halide indicators” (The Regents of the University of California, priority 1999, dated 2001)

Tests used:
[1] = In vitro fluorescence quenching by I^- (Stern-Volmer); type: physicochemical; conditions: Table 4
Experimental: (§1) Computations. In vitro fluorescence quenching studies were carried out at peak excitation and emission wavelengths. Microliter aliquots of the sodium salt of the quenching anion (1 M) were added to indicator solution in 5 mM sodium phosphate (pH 7.2, unless indicated otherwise). Fluorescence intensities in the absence (Fo) and presence (F) of quencher anion ([Q]) were measured to give the Stem-Volmer constant (Kq) as defined by: Fo /F=1+Kq [Q].

[2] = Fluorescence spectra / optical properties; type: physicochemical; design: key to Brightness: ++++: very bright; +++: bright; ++: moderate brightness; +: weak; conditions: for Brightness / λem (emission wavelength) / λex (excitation wavelength): Table 4
Experimental: as §1, with “by:” for “by: Fo /F=1+Kq [Q].”
Fluorescence spectra reveal that LZQ and LMQ have broad excitation and emission peaks with maxima at 424 and 528 nm, respectively. The molar extinction coefficient of LZQ was 11,100 M^-1 cm^-1 at 424 nm and the quantum yield in the absence of I^- was 0.53. Stem-Volmer plots for quenching of LZQ and LMQ by I^- and Cl^-, with data for SPQ shown for comparison, were generated. In water (or saline), LZQ fluorescence was quenched by I^- with a Stem-Volmer constant of 60 M^-1. LZQ fluorescence was not quenched (Stem-Volmer constant <1 M^-1) by Cl^-, NO3^-, phosphate, acetate, Na^+ and K^+. LZQ fluorescence and I^- sensitivity were not affected by pH changes in the range 4.5-8.

CFTR = conditions: cited from earlier work; for correction of CF phenotype (chemical chaperones): Swiss 3T3, Brown et al., 1996
cells [3] = test: Photobleaching in cells; type: cell-based; conditions: Table 4
Experimental: (§2) Fluorescence microscopy. Fluorescence microscopy measurements were performed as described previously (Chao et al., 1989). Briefly, coverglasses were mounted in a 0.5 ml perfusion chamber in which the cell-free glass surface made contact with an oil immersion objective (Nikon ×40 magnification, numerical aperture[NA] 1.3). Cell fluorescence was excited at 365±10 nm (SPQ) or 420 nm±10 nm (LZQ and LMQ). Emitted fluorescence was detected by a photomultiplier in a Nikon inverted epifluorescence microscope using a 410 nm dichroic mirror and 420 nm barrier filter (SPQ) or a 455 nm dichroic mirror and 500 nm barrier filter (LZQ). For cells colabeled with SPQ and LZQ, SPQ fluorescence was excited at 365±10 nm and detected using a 410 nm dichroic mirror and 455±30 nm interference filter. Confocal fluorescence micrographs were obtained using a Nipkow wheel confocal microscope and cooled CCD camera detector using a ×60 oil immersion objective (Nikon, NA 1.4). LZQ-labeled cells were viewed using a fluorescein filter set (excitation 480±15 nm, emission 520±20 nm).
(§3) A time course of LZQ fluorescence during perfusion with physiological saline at 23° C. was generated. A small group of 20-30 cells was illuminated continuously and fluorescence was detected by a photomultiplier using an ×40, 1.3 NA objective. Cellular fluorescence decreased slowly at a rate of 2.5% per hour. To determine the relative contributions of indicator leakage vs. photobleaching to the slow decline in fluorescence, the perfused cells were illuminated intermittently. […] Background fluorescence (in non-labeled cells) was generally <5% of the fluorescence of LZQ-labeled cells.

cells [4] = test: Toxicity in assays of cell growth; type: cell-based; conditions: 2 mM in culture medium for 72 h
Experimental: (§4) LZQ and LMQ were loaded into cells efficiently by hypotonic shock or passive incubation. […] As was found for SPQ, LZQ and LMQ were non-toxic to cells in assays of cell growth (2 mM in culture medium for 72 h).

cells [5] = test: Response of intracellular fluorescence to osmotically-induced changes in cell volume; type: cell-based
Experimental: as §2
The similar LZQ lifetime in cells and water predicts that LZQ fluorescence should be relatively insensitive to cell volume in the absence of I^-. […] When cells were exposed to hypoosmotic medium (225 mOsm), SPQ fluorescence increased by 15±2%, whereas LZQ fluorescence increased by only 4±1%.

cells [6] = test: Cell loading and intracellular distribution (fluorescence/confocal microscopy); type: cell-based; conditions: for Cellular properties: staining/distribution: Table 4
Experimental: as §2
Transport measurements. Cells were labeled with LZQ or SPQ by hypotonic shock (loading buffer/water 1:1 containing 2 mM LZQ or 7.5 mM SPQ) for 5 min at room temperature or by overnight incubation with indicators in the cell culture medium. Extracellular indicator was removed by washing just prior to measurements. For fluorescence microscopy, glass coverslips were then mounted in a perfusion chamber (flow ~2 ml/min) in which solutions were exchanged using a 4-way valve. For microplate reader measurements, cells in 96-well plates were bathed in […] of the `1st buffer` (see Table 3) and […] of the Cl^- -containing, I^- -free solution was injected into the well to drive Cl^- /I^- exchange (protocol 1). For stimulation of CFTR using protocol 2, […] of a 1:8 mixture of the 1st buffer and the 2nd buffer containing […] forskolin, 2 mM CPT-cAMP and […] IBMX was added.
as §4

cells [7] = test: Indicator leakage / cytoplasmic retention; type: cell-based; conditions: Table 4
Experimental: as §2, §3

control fibroblasts = test: Cl^-/I^- exchange by LZQ fluorescence, control cells; type: cell-based; conditions: solution Cl^- replaced by I^-
Experimental: as §2, with “LZQ-labeled cells were viewed using a fluorescein filter set (excitation 480±15 nm, emission 520±20 nm).” left out
(§5) Transport measurements. […] For fluorescence microscopy, glass coverslips were then mounted in a perfusion chamber (flow ~2 ml/min) in which solutions were exchanged using a 4-way valve. For microplate reader measurements, cells in 96-well plates were bathed in […] of the `1st buffer` (see Table 3) and […] of the Cl^- -containing, I^- -free solution was injected into the well to drive Cl^- /I^- exchange (protocol 1). […]

[8] = system: CFTR-expressing fibroblasts and T84 cells; test: Cl^-/I^- exchange by LZQ fluorescence, CFTR-expressing cells; type: cell-based; conditions: solution Cl^- replaced by I^-
Experimental: as §2, with “LZQ-labeled cells were viewed using a fluorescein filter set (excitation 480±15 nm, emission 520±20 nm).” left out
as §5

Brightness [2]	λem (emission wavelength) [2]	λex (excitation wavelength) [2]	Compound	Ksv (I^-), Stern Volmer quenching constant [1]	further results
+++	515 nm	405 nm	C[n+]1c(-c2ccccc2)ccc2cc3ccc(-c4ccccc4)nc3cc21 [Compound VII, 1-methyl-2,7-diphenylpyrido-[3,2,g]quinolinium]	46 M⁻¹	
			CCCC(=O)[O-].[Na+] [sodium butyrate]		Cl transport, overexpression of ΔF508 (CFTR; CFPAC-1, JME/CF15, 1° culture, Cheng et al., 1995): resulted in detectable Cl
++	586 nm	520 nm	Nc1ccc2nc3ccc(N)cc3[n+](-c3ccccc3)c2c1 [XIII, phenosafranine, reference compound]	33 M⁻¹	
++++	550 nm	440 nm	CN(C)c1ccc2cc3ccc(N(C)C)cc3[n+](C)c2c1 [X, 10-methyl acridinium orange]	30 M⁻¹	Cellular properties: photobleaching (cells [3]): very rapid
			CC(C)Cn1c(=O)n(C)c(=O)c2[nH]cnc21 [IBMX, 3-isobutyl-1-methylxanthine]		effect of increased [IBMX] on ΔF508 response (CFTR; L cells, Yang et al., 1993): improved
			OCC(O)CO [glycerol]		correction of CF phenotype (chemical chaperones) (CFTR): corrected the CF phenotype
			COc1ccc2c(ccc[n+]2CCCS(=O)(=O)[O-])c1 [SPQ, 6-methoxy-N-[3-sulfopropyl]quinolinium, reference compound]		toxicity to cells (cell growth) (cells [4]): non-toxic; fluorescence increase upon exposure to hypoosmotic medium (cells [5]; 225 mOsm): 15±2%; fluorescence decrease upon exposure to hyperosmotic medium (cells [5]; 600 mOsm, absence of Cl^-, S.E., n=3): 30±2%
+++	457 nm	422 nm	Nc1c2ccccc2[n+](CCCS(=O)(=O)[O-])c2ccccc12 [XII, 9-amino-10-(3-sulfopropys) acridinium]	253 M⁻¹	Cellular properties: photobleaching (cells [3]): rapid; Cellular properties: staining/distribution (cells [6]): nuclear staining
+++	530 nm	424 nm	Nc1ncnc2c1nc([O-])c1cccc[n+]12 [II]	70 M⁻¹	Cellular properties: photobleaching (cells [3]): slow photobleaching; toxicity to cells (cell growth) (cells [4]): non-toxic; Cellular properties: leakage rate (cells [7]): moderate; Cellular properties: staining/distribution (cells [6]): staining uniform; loading into cells (cells [6]; hypotonic shock or passive incubation): efficiently; emission maximum [2]: 528 nm; excitation maximum [2]: 424 nm
			[2H]O[2H] [D2 O]		correction of CF phenotype (chemical chaperones) (CFTR): corrected the CF phenotype
			NCCCNCCCCNC(=O)C(O)NC(=O)CCCCCCN=C(N)N (centres unmarked) [Deoxyspergualin]		restoration of Cl transport (CFTR; C127-CFTR, JME/CF15, IBE-1, Jiang et al., 1998): partially restored
			CFTR protein: purified CFTR protein		Cl transport after transfer of purified protein (CFTR; CHO-CFTR, FRT-CFTR, LLCPK1, Marshall et al., 1994): induced Cl transport
			C[N+](C)(C)[O-] [TMAO]		correction of CF phenotype (chemical chaperones) (CFTR): corrected the CF phenotype
			C=C[C@@]1(C)CC(=O)[C@]2(O)[C@@]3(C)[C@@H](O)CCC(C)(C)[C@@H]3[C@H](O)[C@H](OC(C)=O)[C@@]2(C)O1 [forskolin]		forskolin-stimulated decrease in LZQ fluorescence, control (control fibroblasts): not in control fibroblasts; forskolin-stimulated change in LZQ fluorescence [8]: rapid decrease in LZQ fluorescence
++++	520 nm	440 nm	Cc1cc2cc3cc(C)c(N)cc3[n+](C)c2cc1N [IX, 10-methyl acridinium yellow]	90 M⁻¹	Cellular properties: photobleaching (cells [3]): very rapid
++++	520 nm	496 nm	N=c1ccc2c(-c3ccccc3C(=O)O)c3ccc(N)cc3oc-2c1 [III, rhodamine-110, reference compound]	40 M⁻¹	
++++	530 nm	505 nm	rhodamine green [IV, reference compound]	30 M⁻¹	
+++	585 nm	571 nm	O=c1ccc2nc3ccc(O)cc3oc-2c1 [VIII, resorufin, reference compound]	76 M⁻¹	
